Data from ChEMBL document CHEMBL5113487, “Novel anilinopyrimidine derivatives as potential EGFRT790M/C797S Inhibitors: Design, Synthesis, biological activity study” (Bioorg Med Chem, 2022).
Active and inactive are the calls of the source. The calls are words filed in the database; no cut-off is given here.

Assays:
[1] = Drug distribution in tumor of nude mouse implanted with mouse BaF3 cells harboring EGFR del18/T790M/C797S triple mutant at 20 mg/kg, po administered as single dose and measured upto 24 hrs; format: ADME, organism-based, Neoplasm; settings: in vivo
[2] = target: RAC-gamma serine/threonine-protein kinase (Homo sapiens, UniProt Q9Y243); test: Inhibition of AKT3 (unknown origin)
[3] = target: Mitogen-activated protein kinase 14 (Homo sapiens, UniProt Q16539); test: Inhibition of P38alpha (unknown origin)
[4] = AUC(0 to t) in mouse at 5 mg/kg measured upto 24 hrs by LC-MS/MS analysis; format: ADME, organism-based; set-up: time < 24 hrs, dose 5 mg/kg; settings: in vivo
[5] = Toxicity in Sprague-Dawley rat assessed as body weight gain during recovery period at 15 mg/kg, po administered once a day for 4 weeks and measured 4 weeks post recovery period; format: organism-based; settings: in vivo, 1344 h, time 8 weeks
[6] = Toxicity in Sprague-Dawley rat assessed as effect on body weight at 3 to 7.5 mg/kg, po administered once a day for 4 weeks and measured 4 weeks post recovery period; format: organism-based; settings: in vivo, 1344 h, dose 3-7.5 mg/kg, time 8 weeks
BaF3 [7] = test: Antitumor activity against mouse BaF3 cells harboring EGFR del18/T790M/C797S triple mutant implanted in Balb/c nude mouse assessed as tumor weight at 15 mg/kg, po administered once a day for 14 days; format: functional; settings: time 14 day
PC-9 [8] = test: Antitumor activity against human PC-9 cells harboring EGFR del18/T790M/C797S triple mutant xenografted in NOD/SCID mouse assessed as tumor growth inhibition at 30 mg/kg, po administered once a day for 21 days relative to control; format: functional; settings: PC-9, 504 h, time 21 day, read-out: TGI
BaF3 [9] = test: Antitumor activity against mouse BaF3 cells harboring EGFR del18/T790M/C797S triple mutant implanted in Balb/c nude mouse assessed as tumor growth inhibition at 30 mg/kg, po administered once a day for 14 days relative to control; format: functional; settings: BaF3, 336 h, time 14 day, read-out: TGI
BaF3 [10] = test: Antitumor activity against mouse BaF3 cells harboring EGFR del18/T790M/C797S triple mutant implanted in Balb/c nude mouse assessed as tumor weight at 40 mg/kg, po administered once a day for 14 days; format: functional; settings: time 14 day
PC-9 [11] = test: Antitumor activity against human PC-9 cells harboring EGFR del18/T790M/C797S triple mutant xenografted in NOD/SCID mouse assessed as tumor growth inhibition at 40 mg/kg, po administered once a day for 21 days relative to control; format: functional; settings: PC-9, 504 h, time 21 day, read-out: TGI
[12] = target: Epidermal growth factor receptor (Homo sapiens, UniProt P00533); test: In vivo inhibition of EGFR phosphorylation in nude mouse implanted with mouse BaF3 cells harboring EGFR del18/T790M/C797S triple mutant at 20 mg/kg, po administered as single dose and measured upto 24 hrs by Western blot analysis
[13] = Drug distribution in plasma of nude mouse implanted with mouse BaF3 cells harboring EGFR del18/T790M/C797S triple mutant at 15 to 45 mg/kg, po administered as single dose and measured after 4 hrs; format: ADME, organism-based; settings: in vivo, dose 15-45 mg/kg
[14] = target: Epidermal growth factor receptor (Homo sapiens, UniProt P00533, C797S/EX18DEL/T790M); test: Inhibition of EGFR del18/T790M/C797S triple mutant (unknown origin) using TK as substrate incubated for 120 mins in the presence of ATP by HTRF assay
[15] = target: Serine/threonine-protein kinase B-raf (Homo sapiens, UniProt P15056); test: Inhibition of BRAF (unknown origin)
[16] = Toxicity in Sprague-Dawley rat assessed as animal death at 3 to 15 mg/kg, po administered once a day for 4 weeks and measured 4 weeks post recovery period; format: organism-based; settings: in vivo, 1344 h, dose 3-15 mg/kg, time 8 weeks
[17] = Drug distribution in tumor of nude mouse implanted with mouse BaF3 cells harboring EGFR del18/T790M/C797S triple mutant at 15 to 45 mg/kg, po administered as single dose and measured after 4 hrs; format: ADME, organism-based, Neoplasm; settings: in vivo, dose 15-45 mg/kg
[18] = target: Epidermal growth factor receptor (Homo sapiens, UniProt P00533, C797S/L858R/T790M); test: Inhibition of EGFR L858R/T790M/C797S triple mutant (unknown origin) using TK as substrate incubated for 120 mins in the presence of ATP by HTRF assay
CDK6/cyclin D3 = CDK6/cyclin D3 (Homo sapiens, UniProt Q00534); test: Inhibition of CDK6/cyclin-D3 (unknown origin); format: protein-complex assay
[19] = MRT in mouse at 5 mg/kg measured upto 24 hrs by LC-MS/MS analysis; format: ADME, organism-based; settings: in vivo
BaF3 [20] = test: Antitumor activity against mouse BaF3 cells harboring EGFR del18/T790M/C797S triple mutant implanted in Balb/c nude mouse assessed as tumor growth inhibition at 15 mg/kg, po administered once a day for 14 days relative to control; format: functional; settings: BaF3, 336 h, time 14 day, read-out: TGI
[21] = Antitumor activity against patient-derived human […] cells xenografted in mouse assessed as tumor weight at 20 mg/kg, po administered once a day for 28 days relative to control; format: functional, LD1-0025-200717; settings: time 28 day
BaF3 [22] = test: Antitumor activity against mouse BaF3 cells harboring EGFR del18/T790M/C797S triple mutant implanted in Balb/c nude mouse assessed as tumor growth inhibition at 40 mg/kg, po administered once a day for 14 days relative to control; format: functional; settings: BaF3, 336 h, time 14 day, read-out: TGI
BaF3 [23] = test: In vivo inhibition of ERK phosphorylation in nude mouse implanted with mouse BaF3 cells harboring EGFR del18/T790M/C797S triple mutant at 20 mg/kg, po administered as single dose and measured upto 24 hrs by Western blot analysis; format: organism-based
[24] = Antitumor activity against patient-derived human […] cells xenografted in mouse assessed as tumor growth inhibition at 40 mg/kg, po administered once a day for 28 days relative to control; format: functional; settings: LD1-0025-200717, 672 h, time 28 day, read-out: TGI
[25] = Acute toxicity in Sprague-Dawley rat assessed as biological changes in clinical pathology at 15 to 60 mg/kg, IG administered as single dose and measured after 14 days; format: organism-based; settings: in vivo, po, 336 h, dose 15-60 mg/kg, time 14 day
[26] = AUC(0 to infinity) in mouse at 5 mg/kg measured upto 24 hrs by LC-MS/MS analysis; format: ADME, organism-based; set-up: dose 5 mg/kg, time < 24 hrs; settings: in vivo
[27] = Half-life in mouse at 5 mg/kg measured upto 24 hrs by LC-MS/MS analysis; format: ADME, organism-based; settings: in vivo
CDK9/cyclin T1 = CDK9/cyclin T1 (Homo sapiens, UniProt P50750); test: Inhibition of CDK9/Cyclin T1 (unknown origin); format: protein-complex assay
[28] = Drug distribution in brain of nude mouse implanted with mouse BaF3 cells harboring EGFR del18/T790M/C797S triple mutant at 20 mg/kg, po administered as single dose and measured upto 24 hrs; format: ADME, organism-based; settings: in vivo
[29] = target: Phosphatidylinositol 4,5-bisphosphate 3-kinase catalytic subunit alpha isoform (Homo sapiens, UniProt P42336); test: Inhibition of PI3Kalpha (unknown origin)
[30] = Cmax in mouse at 5 mg/kg measured upto 24 hrs by LC-MS/MS analysis; format: ADME, organism-based; set-up: time < 24 hrs, dose 5 mg/kg; settings: in vivo
[31] = Toxicity in orally dosed Sprague-Dawley rat assessed as maximum tolerated dose administered once a day for 4 weeks and measured 4 weeks post recovery period; format: organism-based; settings: in vivo, route po, time 8 weeks
[32] = Antitumor activity against patient-derived human […] cells xenografted in mouse assessed as tumor growth inhibition at 20 mg/kg, po administered once a day for 28 days relative to control; format: functional; settings: LD1-0025-200717, 672 h, time 28 day, read-out: TGI
BaF3 [33] = test: Antitumor activity against mouse BaF3 cells harboring EGFR del18/T790M/C797S triple mutant implanted in Balb/c nude mouse assessed as tumor weight at 30 mg/kg, po administered once a day for 14 days; format: functional; settings: time 14 day
BaF3 [34] = test: Antiproliferative activity against mouse BaF3 cells harboring del18/T790M/C797S triple mutant assessed as cell growth inhibition incubated for 72 hrs by cell titre glo luminescence assay; format: functional, cell-based; settings: BaF3, 72 h
[35] = Antitumor activity against patient-derived human […] cells xenografted in mouse assessed as tumor weight at 40 mg/kg, po administered once a day for 28 days relative to control; format: functional, LD1-0025-200717; settings: time 28 day
PC-9 [36] = test: Antitumor activity against human PC-9 cells harboring EGFR del18/T790M/C797S triple mutant xenografted in NOD/SCID mouse assessed as tumor growth inhibition at 15 mg/kg, po administered once a day for 21 days relative to control; format: functional; settings: PC-9, 504 h, time 21 day, read-out: TGI
[37] = Inhibition of ABL (unknown origin); set-up: species or system Homo sapiens
BaF3 [38] = test: cells; settings: Mus musculus, BaF3, 72 h
A-431 = test: Antiproliferative activity against human A-431 cells assessed as cell growth inhibition incubated for 72 hrs by cell titre glo luminescence assay; format: functional, cell-based; settings: A-431, 72 h

CDK9/cyclin T1, sequence (O60563 whole entry): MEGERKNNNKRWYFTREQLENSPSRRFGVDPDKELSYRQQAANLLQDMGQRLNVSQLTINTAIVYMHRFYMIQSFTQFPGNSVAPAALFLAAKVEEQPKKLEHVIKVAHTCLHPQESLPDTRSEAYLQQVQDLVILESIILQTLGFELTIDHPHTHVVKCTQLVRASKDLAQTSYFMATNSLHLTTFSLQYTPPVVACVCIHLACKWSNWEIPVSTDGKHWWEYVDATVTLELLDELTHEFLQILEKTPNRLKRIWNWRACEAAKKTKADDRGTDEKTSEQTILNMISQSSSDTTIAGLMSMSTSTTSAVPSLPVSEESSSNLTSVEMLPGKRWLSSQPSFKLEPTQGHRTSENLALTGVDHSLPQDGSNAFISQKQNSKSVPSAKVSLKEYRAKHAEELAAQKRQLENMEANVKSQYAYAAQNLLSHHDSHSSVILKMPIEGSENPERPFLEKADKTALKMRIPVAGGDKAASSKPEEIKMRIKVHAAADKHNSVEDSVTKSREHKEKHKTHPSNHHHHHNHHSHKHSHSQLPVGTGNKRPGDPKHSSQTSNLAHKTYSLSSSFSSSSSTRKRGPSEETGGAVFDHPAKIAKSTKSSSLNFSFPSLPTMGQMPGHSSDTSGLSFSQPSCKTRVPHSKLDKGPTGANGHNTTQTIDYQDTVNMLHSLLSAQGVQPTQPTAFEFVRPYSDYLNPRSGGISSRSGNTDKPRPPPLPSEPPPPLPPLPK
CDK9/cyclin T1, sequence (P50750 whole entry): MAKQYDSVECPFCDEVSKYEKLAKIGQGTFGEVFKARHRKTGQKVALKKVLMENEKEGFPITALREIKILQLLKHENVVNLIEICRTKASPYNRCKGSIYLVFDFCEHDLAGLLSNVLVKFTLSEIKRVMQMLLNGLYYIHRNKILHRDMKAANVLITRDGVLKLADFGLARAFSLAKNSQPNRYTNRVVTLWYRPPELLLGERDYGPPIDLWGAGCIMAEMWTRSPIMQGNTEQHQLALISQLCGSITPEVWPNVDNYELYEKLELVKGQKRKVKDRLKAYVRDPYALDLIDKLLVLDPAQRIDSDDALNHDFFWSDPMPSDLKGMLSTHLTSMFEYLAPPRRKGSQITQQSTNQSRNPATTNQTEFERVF
CDK6/cyclin D3, sequence (P30281 whole entry): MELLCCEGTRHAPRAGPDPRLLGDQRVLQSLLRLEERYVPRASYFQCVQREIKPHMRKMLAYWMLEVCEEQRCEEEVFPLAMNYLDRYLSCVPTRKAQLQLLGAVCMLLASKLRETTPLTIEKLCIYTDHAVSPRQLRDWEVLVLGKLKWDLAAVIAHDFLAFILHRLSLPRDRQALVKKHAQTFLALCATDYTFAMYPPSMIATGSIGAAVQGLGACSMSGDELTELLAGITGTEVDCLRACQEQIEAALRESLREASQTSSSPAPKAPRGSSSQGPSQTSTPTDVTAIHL
CDK6/cyclin D3, sequence (Q00534 whole entry): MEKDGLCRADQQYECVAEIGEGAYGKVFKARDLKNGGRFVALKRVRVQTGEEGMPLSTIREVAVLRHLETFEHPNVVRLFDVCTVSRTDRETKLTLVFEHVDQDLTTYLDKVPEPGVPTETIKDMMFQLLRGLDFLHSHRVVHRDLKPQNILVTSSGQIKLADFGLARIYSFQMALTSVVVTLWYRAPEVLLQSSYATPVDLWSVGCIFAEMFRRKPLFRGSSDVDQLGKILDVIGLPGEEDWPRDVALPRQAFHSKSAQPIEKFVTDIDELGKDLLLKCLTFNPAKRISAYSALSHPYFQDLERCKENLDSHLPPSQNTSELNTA
Serine/threonine-protein kinase B-raf, sequence (P15056 whole entry): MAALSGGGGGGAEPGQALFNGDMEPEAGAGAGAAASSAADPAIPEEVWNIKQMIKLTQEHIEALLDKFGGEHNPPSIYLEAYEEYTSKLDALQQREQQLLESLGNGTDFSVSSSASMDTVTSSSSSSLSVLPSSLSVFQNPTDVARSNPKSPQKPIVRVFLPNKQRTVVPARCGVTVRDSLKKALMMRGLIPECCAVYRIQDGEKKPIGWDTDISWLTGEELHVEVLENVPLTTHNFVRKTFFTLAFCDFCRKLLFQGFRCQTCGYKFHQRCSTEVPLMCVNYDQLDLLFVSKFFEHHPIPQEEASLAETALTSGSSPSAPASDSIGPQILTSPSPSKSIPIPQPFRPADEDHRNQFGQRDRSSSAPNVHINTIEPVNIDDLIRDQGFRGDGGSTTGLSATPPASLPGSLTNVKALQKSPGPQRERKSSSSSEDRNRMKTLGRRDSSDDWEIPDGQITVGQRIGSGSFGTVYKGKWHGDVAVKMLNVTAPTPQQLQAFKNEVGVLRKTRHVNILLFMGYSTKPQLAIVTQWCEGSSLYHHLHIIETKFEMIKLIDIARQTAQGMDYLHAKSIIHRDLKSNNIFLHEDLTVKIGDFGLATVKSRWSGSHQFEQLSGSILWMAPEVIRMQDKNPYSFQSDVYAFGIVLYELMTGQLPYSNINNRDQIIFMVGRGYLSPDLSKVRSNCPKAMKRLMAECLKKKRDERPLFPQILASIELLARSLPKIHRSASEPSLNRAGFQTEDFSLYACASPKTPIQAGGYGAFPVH
RAC-gamma serine/threonine-protein kinase, sequence (Q9Y243 whole entry): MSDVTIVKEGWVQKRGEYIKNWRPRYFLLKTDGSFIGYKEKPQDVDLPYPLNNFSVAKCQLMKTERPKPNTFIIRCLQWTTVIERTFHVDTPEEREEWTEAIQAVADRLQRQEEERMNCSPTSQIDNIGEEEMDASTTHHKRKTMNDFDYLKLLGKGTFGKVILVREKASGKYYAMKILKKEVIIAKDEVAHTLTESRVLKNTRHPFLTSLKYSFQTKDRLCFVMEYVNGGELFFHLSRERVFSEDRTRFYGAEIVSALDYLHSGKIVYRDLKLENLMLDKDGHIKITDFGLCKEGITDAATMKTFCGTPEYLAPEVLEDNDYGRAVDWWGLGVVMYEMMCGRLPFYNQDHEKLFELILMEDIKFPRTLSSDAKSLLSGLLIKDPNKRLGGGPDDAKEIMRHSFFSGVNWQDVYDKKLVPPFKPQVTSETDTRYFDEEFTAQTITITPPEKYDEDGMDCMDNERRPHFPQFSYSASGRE
Mitogen-activated protein kinase 14, sequence (Q16539 whole entry): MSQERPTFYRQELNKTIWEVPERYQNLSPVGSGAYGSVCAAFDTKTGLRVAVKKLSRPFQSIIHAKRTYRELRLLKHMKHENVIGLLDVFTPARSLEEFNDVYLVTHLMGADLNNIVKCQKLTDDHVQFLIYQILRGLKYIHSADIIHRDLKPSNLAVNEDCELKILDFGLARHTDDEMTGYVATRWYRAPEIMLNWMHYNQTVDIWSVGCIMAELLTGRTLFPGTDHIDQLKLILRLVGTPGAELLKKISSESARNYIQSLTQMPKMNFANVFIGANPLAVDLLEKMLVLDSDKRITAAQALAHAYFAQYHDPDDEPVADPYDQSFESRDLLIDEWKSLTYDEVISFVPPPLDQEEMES
Epidermal growth factor receptor (Homo sapiens, UniProt P00533), sequence (P00533 whole entry, looked up): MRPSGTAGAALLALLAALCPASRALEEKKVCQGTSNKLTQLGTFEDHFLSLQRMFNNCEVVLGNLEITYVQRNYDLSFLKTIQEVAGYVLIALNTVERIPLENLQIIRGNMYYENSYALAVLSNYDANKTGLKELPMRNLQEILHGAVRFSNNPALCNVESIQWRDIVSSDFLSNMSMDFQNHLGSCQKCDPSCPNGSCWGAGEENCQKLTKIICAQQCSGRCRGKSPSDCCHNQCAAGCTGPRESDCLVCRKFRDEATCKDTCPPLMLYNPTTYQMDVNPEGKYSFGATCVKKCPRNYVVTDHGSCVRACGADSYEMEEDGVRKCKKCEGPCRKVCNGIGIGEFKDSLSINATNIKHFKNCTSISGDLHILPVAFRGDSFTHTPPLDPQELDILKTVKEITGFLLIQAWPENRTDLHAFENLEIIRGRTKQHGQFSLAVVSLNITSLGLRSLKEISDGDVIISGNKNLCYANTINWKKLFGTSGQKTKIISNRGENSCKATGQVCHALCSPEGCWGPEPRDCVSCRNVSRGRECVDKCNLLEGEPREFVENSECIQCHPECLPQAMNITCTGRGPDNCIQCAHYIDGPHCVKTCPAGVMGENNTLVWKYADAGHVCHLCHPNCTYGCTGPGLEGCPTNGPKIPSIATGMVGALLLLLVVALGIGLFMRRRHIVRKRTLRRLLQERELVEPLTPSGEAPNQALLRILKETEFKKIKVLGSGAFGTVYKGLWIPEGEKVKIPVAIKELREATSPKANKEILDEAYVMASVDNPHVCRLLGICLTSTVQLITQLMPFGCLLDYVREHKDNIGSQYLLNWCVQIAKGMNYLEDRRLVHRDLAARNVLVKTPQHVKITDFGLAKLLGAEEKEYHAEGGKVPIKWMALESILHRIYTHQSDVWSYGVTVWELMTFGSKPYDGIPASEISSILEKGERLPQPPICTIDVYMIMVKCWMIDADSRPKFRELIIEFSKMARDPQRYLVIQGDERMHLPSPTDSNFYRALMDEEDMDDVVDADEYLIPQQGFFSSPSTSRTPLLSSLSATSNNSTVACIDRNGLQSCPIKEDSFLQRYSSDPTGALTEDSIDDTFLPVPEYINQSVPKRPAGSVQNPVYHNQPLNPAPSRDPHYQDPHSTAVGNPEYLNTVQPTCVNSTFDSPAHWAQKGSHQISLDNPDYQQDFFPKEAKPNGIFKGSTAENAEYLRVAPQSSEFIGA

Which Drug uptake [1] does the source give for `COCC1CN(C2CCN(c3cc(OC)c(Nc4ncc(Br)c(Nc5ccc6c(c5P(C)(C)=O)OCCO6)n4)cc3C)CC2)C1` here?
The Drug uptake was “Active”.

And the IC50 [2]?
The IC50 was > 10000 nM.

And the IC50 [3]?
The IC50 was > 10000 nM.

And the AUC(0-t) at 24 h [4]?
The AUC(0-t) at 24 h was 11600 ng·h/mL.

What about the Activity [5] of the same compound?
The Activity was “Toxic”.

What about the Activity [6] of the same compound?
Its Activity is “Non-Toxic”.

And the Activity (BaF3 [7])?
Its Activity is 0.653 g.

What about the inhibition in vivo at 30 mg/kg (PC-9 [8]) of the same compound?
Its inhibition in vivo at 30 mg/kg is 47.2%.

What about the inhibition in vivo at 30 mg/kg (BaF3 [9]) of the same compound?
Its inhibition in vivo at 30 mg/kg is 82.6%.

What about the Activity (BaF3 [10]) of the same compound?
The Activity was 0.161 g.

And the inhibition in vivo at 40 mg/kg (PC-9 [11])?
Its inhibition in vivo at 40 mg/kg is 68.8%.

What about the inhibition [12] of the same compound?
The inhibition was “Active”.

What about the Drug uptake [13] of the same compound?
The Drug uptake was “Active”.

And the IC50 [14]?
Its IC50 is 0.31 nM.

What about the IC50 [15] of the same compound?
The IC50 was > 10000 nM.

And the Activity [16]?
The Activity was “Non-Toxic”.

What about the Drug uptake [17] of the same compound?
The Drug uptake was “Active”.

And the IC50 [18]?
Its IC50 is 0.09 nM.

And the IC50 (CDK6/cyclin D3)?
The IC50 was > 10000 nM.

What about the MRT [19] of the same compound?
The MRT was 4.7 h.

What about the inhibition in vivo at 15 mg/kg (BaF3 [20]) of the same compound?
The inhibition in vivo at 15 mg/kg was 48.4%.

What about the Activity [21] of the same compound?
The Activity was 0.475 g.

And the inhibition in vivo at 40 mg/kg (BaF3 [22])?
The inhibition in vivo at 40 mg/kg was 90.3%.

What about the inhibition (BaF3 [23]) of the same compound?
The inhibition was “Active”.

And the inhibition in vivo at 40 mg/kg [24]?
Its inhibition in vivo at 40 mg/kg is 67.4%.

What about the Activity [25] of the same compound?
Its Activity is “Non-Toxic”.

And the AUC(0-inf) [26]?
Its AUC(0-inf) is 11600 ng·h/mL.

What about the half-life [27] of the same compound?
Its half-life is 2.9 h.

And the IC50 (CDK9/cyclin T1)?
The IC50 was 4080 nM.

And the Drug uptake [28]?
Its Drug uptake is “Active”.

And the IC50 [29]?
Its IC50 is > 10000 nM.

What about the Cmax [30] of the same compound?
The Cmax was 1990 ng/mL.

And the MTD at 1344 h [31]?
The MTD at 1344 h was 15 mg/kg.

What about the inhibition in vivo at 20 mg/kg [32] of the same compound?
The inhibition in vivo at 20 mg/kg was 58.4%.

What about the Activity (BaF3 [33]) of the same compound?
Its Activity is 0.319 g.

What about the IC50 (BaF3 [34]) of the same compound?
The IC50 was 14 nM.

What about the Activity [35] of the same compound?
The Activity was 0.38 g.

And the inhibition in vivo at 15 mg/kg (PC-9 [36])?
The inhibition in vivo at 15 mg/kg was 22%.

And the IC50 [37]?
Its IC50 is 86 nM.

Which IC50 (BaF3 [38]) does the source give for `COc1cc(N2CCC(N3CCN(C)CC3)CC2)ccc1Nc1ncc(Cl)c(Nc2ccccc2P(C)(C)=O)n1` [BRIGATINIB] here?
Its IC50 is < 100 nM.

What about the IC50 (A-431) of the same compound?
The IC50 was 709 nM.

What about the IC50 (BaF3 [34]) of the same compound?
The IC50 was 433 nM.
